Experimental data from US20100056431A1, “MEDICAL USES” (priority 2006, published 2010).
Entries after “also recorded” stand apart in the source; their conditions may differ.

Assays:
phosphorylated MAPK 1/2 = assay: Heregulin-induced MAPK phosphorylation in ZR75-1 cells (Western blot); type: cell-based, human; conditions: ZR75-1 cells (LL-37 expressing), Heregulin 2 ng/ml, 20 min
Description: ZR75-1 cells were treated for 20 min with Heregulin (2 ng/ml), LL-25 or LL-37 or in combination as indicated. Protein extracts were analysed by Western blot analysis against phosphorylated MAPK.
ZR75-1 ells were grown in Optimem and 10% FCS, and plated in 12-well plates at 100 000 cells/well, corresponding 70% confluency. After reattachment, cells were starved for 48 hours in DMEM, no FCS. Test substrate dissolved in 50 μl PBS were added to the medium, and cells were incubated for 20 min. The stimulation was stopped by washing the cells with ice-cold PBS containing 1 mM NaF, 100 μM Na3VO4, and 2 mM PMSF, and then lysed in 300 μl SDS lysis buffer containing the inhibitors as above. Proteins were separated in an 8% gel, and blotted to nitrocellulose filters according to standard conditions. Filters were reversibly stained with 3% Ponceau S, blocked with 4% NFDM in TBS/0.1% Tween20, and incubated o.n. with the primary antibody. For detection of phosphorylated MAPK 1/2 (pThr 202/pTyr 204), a monoclonal antibody (Cell Signaling Inc) was used at 1/2000. […] The signal was captured in a CCD camera (Fuji, Tokyo, Japan) for 1 min, and evaluated by Image Gauge Software. For quantification, the signals were normalized against the Ponceau S staining that had been scanned in and quantified using the same software.

phosphorylated MAPK = assay: Competitive inhibition of LL-37 on Heregulin-induced MAPK phosphorylation in MCF7 cells (Western blot); type: cell-based, human; conditions: Heregulin 2 ng/ml
Description: Heregulin (2 ng/ml) was added to the breast cancer line MCF7, which produces virtually no LL-37 on its own, together with LL-37 (2 μM) and LL-25 at concentrations as indicated. In the control experiments, the solvent (PBS), or LL-37, LL-25 or heregulin (HRG) were added as the only substrates. The quantitative evaluation of triplicate measurements is shown together with the Western blot of one of the triplicates.
ZR75-1 ells were grown in Optimem and 10% FCS, and plated in 12-well plates at 100 000 cells/well, corresponding 70% confluency. After reattachment, cells were starved for 48 hours in DMEM, no FCS. Test substrate dissolved in 50 μl PBS were added to the medium, and cells were incubated for 20 min. […] The signal was captured in a CCD camera (Fuji, Tokyo, Japan) for 1 min, and evaluated by Image Gauge Software. For quantification, the signals were normalized against the Ponceau S staining that had been scanned in and quantified using the same software.
In a further experiment, Heregulin (2 ng/ml) was added to the breast cancer line MCF7, which produces virtually no LL-37 on its own, together with exogenous LL-37 (2 μM) and LL-25 at concentrations as indicated. […] The quantitative evaluation of triplicate measurements is shown together with the Western blot of one of the triplicates.

HaCaT cells [1] = assay: LL-37 peptide treatment of epithelial cells, proliferation by [3H]-Thymidine incorporation; type: cell-based, human; conditions: serum starved 72 hours, LL-37 10 μg/ml, DMEM+5% FCS, versus non treated control
Description: A spontaneously immortalised human keratinocyte cell line (HaCaT) ^19 was cultured in DMEM (Dulbecco's modified Eagle's medium, Gibco BRL, Life Technologies, Scotland) supplemented with 10% FCS (fetal calf serum, Hy-Clone, Boule Nordic AB Huddinge, Sweden) and antibiotics (PEST=penicillin 50 U/l and streptomycin […], Gibco BRL). Cells were harvested at 70% confluence and seeded in 96-well plates, 2000 cells in 100 μl medium (DMEM+10% FCS and PEST). After 12 hours, medium was changed to serum free medium (DMEM+PEST) and cells were synchronized in G0/G1 by serum starvation for 72 hours and then treated with 100 μl of medium (DMEM+5% FCS+PEST) containing synthetic biologically active LL-37 peptide at 10 μg per ml. Cells treated with only DMEM+5% FCS and PEST served as control. The experiments were performed in quadruplicates. Cell proliferation was evaluated by [^3H]-Thymidine incorporation. Cells were treated with 1 μCi/well of [^3H]-Thymidine (20.00 Ci/mmol, Perkin Elmer Life Sciences Inc. Boston, Mass.) during 12 hours and harvested (Harvester 96, Tomtec, Orage, Conn.) onto a glass fiber filter (Wallac Oy Turku, Finland). The incorporation of [^3H]-Thymidine was determined using a liquid scintillation counter (Microbeta Pluss, Wallac Sveriges AB). The experiment was repeated twice in 6 replicates.

[2] = Antibacterial assay of synthetic LL-37 peptide
Source text: LL-37 peptide was synthesised and purified by HPLC to a purity of 98% (PolyPeptide Laboratories A/S, Hillerød, Denmark). Biological activity of the peptide was confirmed in an antibacterial assay ^18.

ERK1/2 = assay: Assay of phosphorylated ERK1/2 in LL-37 treated HaCaT cells (Western blot); type: cell-based, human; conditions: LL-37 10 μg/ml, 48 hours, 1% or 5% FCS
Description: HaCaT cells were seeded at 10% confluence and kept in DMEM with 0.2% FCS for 36 hours. For the next 48 hours, cells were cultured in DMEM with 1% or 5% FCS respectively, and in presence or absence of LL-37 at 10 μg/ml, with daily changes of medium. EGF at 10 ng/ml served as positive control. The expression of phosphorylated ERK 1/2 was evaluated by Western blot analysis with a mouse monoclonal antibody (Cell Signaling Technology, Beverly Mass.).

HaCaT cells [3] = assay: Pertussis toxin assay (LL-37 induced HaCaT cell proliferation); type: cell-based, human; conditions: pertussis toxin 20 ng/ml preincubated 24 h before LL-37 at 5 or 10 μg per ml, data not shown
Description: To assess the involvement of FPRL1 in mediating the stimulation of epithelial cell proliferation induced by hCAP18/LL-37, HaCaT cells were treated with the G-protein-coupled receptor inhibitor pertussis toxin. Cells were preincubated with pertussis toxin (Sigma-Aldrich, Switzerland) 24 h before the LL-37 treatment in a final toxin concentration of 20 ng/ml. Medium was changed 48 hours after cell seeding and the HaCaT cells were treated with 100 μl of medium (DMEM+5% FCS and PEST) containing synthetic biologically active LL-37 peptide at 5 or 10 μg per ml respectively. Cells treated with only DMEM+5% FCS and PEST served as control.

LLGDFFRKSKEKIGKEFKRIVQRIK (listed as Homo sapiens) [LL-25, N-terminal 25 amino acids of the C-terminal LL-37 peptide derived from human cathelicidin antimicrobial protein hCAP18]
effect on MAPK phosphorylation through Heregulin (phosphorylated MAPK 1/2): inhibits MAPK phosphorylation
blocking of the endogenous LL-37 contribution to MAPK activation through HRG (phosphorylated MAPK): can significantly be blocked by LL-25
inhibition of LL-37 on Heregulin-induced MAPK phosphorylation (phosphorylated MAPK; exogenous LL-37 2 μM, LL-25 at varied concentrations): competitive and highly efficient inhibitor to LL-37, even at 10% of the concentration of LL-37

LLGDFFRKSKEKIGKEFKRIVQRIKDFLRNLVPRTES (listed as Homo sapiens) [LL-37, C-terminal peptide of human cathelicidin antimicrobial protein hCAP18; synthesised, HPLC purity 98%]
cell proliferation ([3H]-Thymidine incorporation) (HaCaT cells [1]): significantly increased cell proliferation; also recorded: significant increase in cell proliferation
biological activity in antibacterial assay [2]: confirmed
activation of ERK1/2 (phosphorylated ERK1/2) (ERK1/2): no significant activation of ERK1/2

pertussis toxin
suppression of LL-37 stimulated proliferation by pertussis toxin pretreatment (HaCaT cells [3]): approximately 50%
